14 compounds from patent US6518410B2, “Sulfoquinovosylacylglycerol derivative, and use thereof as medicaments” (Toyo Suisan Kaisha, Ltd., priority 1999, dated 2003) can be followed below.

Usually IC50 stands for the concentration that inhibits the measured activity by half.

For experiment [1], the system named is Colon cancer cells DLD-1. Kind of experiment: Anticancer activity against cultured colon cancer cells (MTT assay). The format is cell-based. To be noted: Homo sapiens, DLD-1, 48 hours, mixture of S- and R-configurations, read-out: IC50, Anti-Cancer Activity against Colon Cancer Cells. As to the method:
An assay on anticancer activity against cultured colon cancer cells was carried out in the following manner.
(§1) Colon cancer cells DLD-1 were maintained and subcultured in RPMI 1640 medium (containing 10% calf serum). Each of compounds SQAG 1, SQAG 2, SQAG 4, SQAG 6, SQAG 8, SQAG 11, SQAG 12, SQAG 13 and SQAG 14 shown in Table 1 was suspended and diluted in the medium, and then was cultivated in a 96-well plate together with the cancer cells at 3×10^3 cells/well. After the culture has been incubated for 48 hours, the MTT assay (Mosmann, T: Journal of immunological Method, 65, 55-63 (1983)) was carried out to compare viability rates.
For orientation: Tetrazolium assays rely on reduction of a dye to a coloured formazan, in cell work by metabolically active cells.

The target of experiment [2] is T1, DNA polymerase α isolated from the bovine thymus (Bos taurus, UniProt A0AAA9TD94).
T1 construct: isolated from the bovine thymus and purified with an antibody column; from tissue; host or cells: bovine thymus
T1 sequence (A0AAA9TD94 1-1441): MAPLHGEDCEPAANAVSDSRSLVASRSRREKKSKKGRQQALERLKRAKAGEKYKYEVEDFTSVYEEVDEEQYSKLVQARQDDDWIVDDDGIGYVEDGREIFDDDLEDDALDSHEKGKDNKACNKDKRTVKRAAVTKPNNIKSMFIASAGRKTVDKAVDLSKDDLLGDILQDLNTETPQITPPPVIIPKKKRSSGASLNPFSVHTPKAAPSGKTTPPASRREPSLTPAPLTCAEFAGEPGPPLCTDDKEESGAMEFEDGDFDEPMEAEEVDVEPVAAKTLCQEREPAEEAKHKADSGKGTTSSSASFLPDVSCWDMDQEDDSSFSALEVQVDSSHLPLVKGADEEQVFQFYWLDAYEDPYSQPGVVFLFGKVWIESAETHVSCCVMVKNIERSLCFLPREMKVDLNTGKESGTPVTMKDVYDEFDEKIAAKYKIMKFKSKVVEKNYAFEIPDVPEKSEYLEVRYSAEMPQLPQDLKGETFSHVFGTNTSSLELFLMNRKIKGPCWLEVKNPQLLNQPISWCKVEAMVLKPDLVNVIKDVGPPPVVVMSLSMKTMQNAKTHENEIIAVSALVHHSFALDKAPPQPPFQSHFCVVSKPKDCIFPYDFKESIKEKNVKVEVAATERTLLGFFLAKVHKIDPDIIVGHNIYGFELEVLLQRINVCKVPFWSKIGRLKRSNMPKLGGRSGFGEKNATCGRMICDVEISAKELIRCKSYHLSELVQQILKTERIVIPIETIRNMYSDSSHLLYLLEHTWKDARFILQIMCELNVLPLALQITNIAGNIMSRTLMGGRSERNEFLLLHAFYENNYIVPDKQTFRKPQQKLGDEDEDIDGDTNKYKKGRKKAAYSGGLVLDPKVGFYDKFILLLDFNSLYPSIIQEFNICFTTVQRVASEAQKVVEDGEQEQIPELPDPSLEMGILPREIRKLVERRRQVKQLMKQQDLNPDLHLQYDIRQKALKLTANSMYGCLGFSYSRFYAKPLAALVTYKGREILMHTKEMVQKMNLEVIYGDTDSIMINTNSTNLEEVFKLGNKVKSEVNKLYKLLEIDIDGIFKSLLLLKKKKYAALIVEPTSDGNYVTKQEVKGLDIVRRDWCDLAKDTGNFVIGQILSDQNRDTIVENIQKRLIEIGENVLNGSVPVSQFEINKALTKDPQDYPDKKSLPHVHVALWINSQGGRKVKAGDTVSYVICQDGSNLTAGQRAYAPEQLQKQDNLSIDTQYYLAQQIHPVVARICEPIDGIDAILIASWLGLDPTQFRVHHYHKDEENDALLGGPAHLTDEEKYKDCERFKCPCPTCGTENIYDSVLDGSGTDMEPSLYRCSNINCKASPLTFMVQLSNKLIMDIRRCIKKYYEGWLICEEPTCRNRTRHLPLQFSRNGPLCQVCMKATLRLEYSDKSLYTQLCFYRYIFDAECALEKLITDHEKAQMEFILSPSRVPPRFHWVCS
Kind of experiment: Inhibitory effect against DNA polymerase α. It counts as biochemical. Particulars: 0.05 U enzyme, 37° C., 60 minutes; mixture of S- and R-configurations; read-out: IC50, Inhibition Activity against DNA Polymerase α (converted). The method, then: An assay on inhibitory effect against a DNA polymerase α was carried out in the following manner.
0.05 U of a DNA polymerase α isolated from the bovine thymus and purified with an antibody column was mixed with each of compounds SQAG 1 to SQAG 14 listed in Table 1 above, each of which was dissolved in DMSO. Each mixture was added with a buffer of an inorganic salt necessary for the enzymatic reaction, [^3H]-labeled dTTP, and a compound for reaction containing a template DNA chain, and was incubated at 37° C. for 60 minutes.
After the enzymatic reaction was stopped, the resultant product was fixed on a dedicated filter to make measurement by a liquid scintillation counter. The amount of enzymatically synthesized dTTP was calculated as a radiation dose (cpm) of [^3H].

For experiment [3], the system named is gastric cancer cells NUGC-3. Kind of experiment: Anticancer activity against cultured gastric cancer cells (MTT assay). The format is cell-based. To be noted: Homo sapiens, NUGC-3, 48 hours, mixture of S- and R-configurations. The method, then: as §1
An assay on anticancer activity against cultured gastric cancer cells was carried out in the same manner as in the assay 4 except that gastric cancer cells NUGC-3 were used instead of the colon cancer cells DLD-1.

In experiment [4] the test system is responder cells (T lymphocytes) with mitomycin C treated stimulator lymphocytes. Kind of experiment: Mixed lymphocytes reaction ([3H]-thymidine uptake of responder cells). It counts as cell-based, healthy persons. To be noted: 4 days culture, then 12 hours [3H]-thymidine; FIGS. 1-4. As to the method:
Mixed lymphocytes reaction
Lymphocytes serving as stimulator cells and responder cells were prepared from blood taken from individual healthy persons.
The responder cells were further separated from the lymphocyte cells to give T lymphocytes alone.
No treatment was applied to the responder cells. 10^6/mL of the stimulator cells were treated with 10 μg/mL of mitomycin C to stop the cell growth. Thereafter, the stimulator cells were washed with PBS (phosphate buffer saline) 4 times.
Subsequently, the responder cells were inoculated at a rate of 10^5 cells per well and then test substances (compounds SQAG 3, SQAG 5, SQAG 7, and SQAG 9 listed in Table 6 below) were added to a predetermined concentration. The reaction mixture was cultured at 37° C. for one hour. Thereafter, the stimulator cells were added at a rate of 10^5 cells per well. The mixture was cultured in a CO2 incubator at 37° C. for 4 days. After the incubation, the proliferation ability of the responder cells was quantified as follows. […] Then, the amount of [^3H]-thymidine uptake into the cells was determined by a scintillation counter.
FIGS. 1-4 show the amounts of [^3H]-thymidine uptake when SQAG 3, SQAG 5, SQAG 7, and SQAG 9 are added. […] In each of the FIGS. 1-4, the vertical axis indicates the intensity of radioactivity and the horizontal axis indicates the concentration of the test substance.

The test system of experiment [5] is LEW rat skin graft on ACI rats. Kind of experiment: Rejection test in skin graft. It counts as in vivo. Particulars: 10 mL of 1 mg/mL intraperitoneally daily for five days, graft taken on the seventh day. The method, then:
Rejection test in skin graft
ACI rats and LEW rats were prepared and subjected to inhalation anesthesia of ether. After shaving the dorsum of each ACI rat, posterior lateral skin (1×1 cm) was removed to form a skin-flayed wound, and then a hemostatic treatment was performed. On the other hand, a piece of skin (1×1 cm) was obtained from the tail of each LEW rat. The donor skin was applied to the skin-flayed wound of each ACI rat and sutured with 5-0 nylon sutures. Then, gauze was applied to the surgically operated portion and a corset with a rubber bandage was further attached thereon to protect it. Such a skin transplantation operation was applied to all ten ACI rats in the same manner. Of the ten ACT rats, five rats were selected at random and classified as a control group, and the remaining five rats were classified as a test group to which test substances are to be administered. To the control group, 10 mL of physiological saline was intraperitoneally injected daily for five days after the surgery. To the test group, 10 mL solution of SQAG 9 dissolved in physiological saline at a concentration of 1 mg/mL was intraperitoneally injected daily for five days after the surgery in the same manner as in the control group.
On the seventh day after the operation, a graft was taken to prepare a tissue specimen. […]

Consider `CCCCCCCCCCCCCC(=O)OCC(CO[C@H]1O[C@H](CS(=O)(=O)O)[C@@H](O)[C@H](O)[C@H]1O)OC(=O)CCCCCCCCCCCCC` (mixture of isomers) [SQAG 1], for which the IC50 in experiment [1] is 38 µg/mL; in experiment [2] it was 1080 nM; in experiment [3], 32 µg/mL.
For `CCCCCCCCCCCCCC(=O)OCC(O)CO[C@H]1O[C@H](CS(=O)(=O)O)[C@@H](O)[C@H](O)[C@H]1O` (mixture of isomers) [SQAG 2], in that order: 40 µg/mL, 8510 nM and 40 µg/mL.
Turning to `CCCCCCCCCCCCCCCC(=O)OCC(O)CO[C@H]1O[C@H](CS(=O)(=O)O)[C@@H](O)[C@H](O)[C@H]1O` (mixture of isomers) [SQAG 4], the IC50 was 31 µg/mL in experiment [1], 6290 nM in experiment [2] and 40 µg/mL in experiment [3].
For `CCCCCCCCCCCCCCCCCC(=O)OCC(CO[C@H]1O[C@H](CS(=O)(=O)O)[C@@H](O)[C@H](O)[C@H]1O)OC(=O)CCCCCCCCCCCCCCCCC` (mixture of isomers) [SQAG 5], the IC50 in experiment [2] was 352 nM.
For the compound `CCCCCCCCCCCCCCCCCC(=O)OCC(O)CO[C@H]1O[C@H](CS(=O)(=O)O)[C@@H](O)[C@H](O)[C@H]1O` (mixture of isomers) [SQAG 6], the figures for the IC50 in experiment [1], in experiment [2] and in experiment [3] were 30 µg/mL, 4100 nM and 37.5 µg/mL, respectively.
As for `CCCCCCCCCCCCCCCC(=O)OCC(CO[C@@H]1O[C@H](CS(=O)(=O)O)[C@@H](O)[C@H](O)[C@H]1O)OC(=O)CCCCCCCCCCCCCCC` (mixture of isomers) [SQAG 7], the IC50 in experiment [2] was 377 nM.
As for `CCCCCCCCCCCCCCCC(=O)OCC(O)CO[C@@H]1O[C@H](CS(=O)(=O)O)[C@@H](O)[C@H](O)[C@H]1O` (mixture of isomers) [SQAG 8], the half-inhibitory concentration (IC50) in experiment [1] was 42 µg/mL; in experiment [2] it was 7190 nM; in experiment [3], 50 µg/mL.
Take `CCCCCCCCCCCCCCCCCC(=O)OCC(CO[C@@H]1O[C@H](CS(=O)(=O)O)[C@@H](O)[C@H](O)[C@H]1O)OC(=O)CCCCCCCCCCCCCCCCC` (mixture of isomers) [SQAG 9]: in experiment [4], the “immunosuppressive activity (amount of [3H]-thymidine uptake)” value was “considerably higher immunosuppressive activity than other compounds”. In addition, in experiment [5], the “necrosis of the epidermal layer of the graft (histological observation)” value was “three out of five rats” and the “rats in which some parts of the epidermis adhered to the dermis (rejection suppressed)” value is reported as “remaining two rats”. In experiment [2], the concentration for half-maximal inhibition (IC50) is 352 nM.
As for `CCCCCCCCCCCCCCCCCC(=O)OCC(O)CO[C@@H]1O[C@H](CS(=O)(=O)O)[C@@H](O)[C@H](O)[C@H]1O` (mixture of isomers) [SQAG 10], the concentration for half-maximal inhibition (IC50) in experiment [2] is 5130 nM.
On to `CCCCCCCCCCCCCCCCCCCC(=O)OCC(O)CO[C@H]1O[C@H](CS(=O)(=O)O)[C@@H](O)[C@H](O)[C@H]1O` (mixture of isomers) [SQAG 11], for which the half-inhibitory concentration (IC50) in experiment [1] was 28 µg/mL; in experiment [2], 1960 nM; in experiment [3], 24 µg/mL.
For `CCCCCCCCCCCCCCCCCCCCCC(=O)OCC(O)CO[C@H]1O[C@H](CS(=O)(=O)O)[C@@H](O)[C@H](O)[C@H]1O` (mixture of isomers) [SQAG 12], in that order: 20 µg/mL, 1560 nM and 23 µg/mL.
For `CCCCCCCCCCCCCCCCCCCCCCCC(=O)OCC(O)CO[C@H]1O[C@H](CS(=O)(=O)O)[C@@H](O)[C@H](O)[C@H]1O` (mixture of isomers) [SQAG 13], in that order: 20 µg/mL, 1490 nM and 20 µg/mL.
For `CCCCCCCCCCCCCCCCCCCCCCCCCC(=O)OCC(O)CO[C@H]1O[C@H](CS(=O)(=O)O)[C@@H](O)[C@H](O)[C@H]1O` (mixture of isomers) [SQAG 14], in that order: 18 µg/mL, 1430 nM and 20 µg/mL.
For the compound `CCCCCCCCCCCCCCCC(=O)OCC(CO[C@H]1O[C@H](CS(=O)(=O)O)[C@@H](O)[C@H](O)[C@H]1O)OC(=O)CCCCCCCCCCCCCCC` (some centres unmarked) [SQAG 3], in experiment [2], the half-inhibitory concentration (IC50) is 503 nM.
